Data published in PubChem BioAssay AID330 (DTP/NCI, 2004).
Inconclusive results and toxic doses are left out.

System: P388 leukemia ip, CD2F1 mice, survival T/C
Experiment: NCI In Vivo Anticancer Drug Screen. Data for tumor model P388 Leukemia (intraperitoneal) in CD2F1 (CDF1) mice
Details: endpoint: median survival time, higher = longer survival
How it was run: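 Mice carrying the transplanted tumor received test compound or vehicle. Survival was recorded in each group, and the value is the treated-group measurement divided by that of the vehicle-treated control group.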

[1] = dose: 50.0 mg/kg/injection, schedule: Q01DX009 (ip), vehicle: saline with Tween-80
[2] = dose: 100.0 mg/kg/injection, schedule: Q01DX009 (ip), vehicle: saline with Tween-80
[3] = dose: 200.0 mg/kg/injection, schedule: Q01DX009 (ip), vehicle: saline with Tween-80
[4] = dose: 50.0 mg/kg/injection, schedule: Q01DX009 (ip), vehicle: Klucel (hydroxypropylcellulose) (HPC)
[5] = dose: 100.0 mg/kg/injection, schedule: Q01DX009 (ip), vehicle: Klucel (hydroxypropylcellulose) (HPC)
[6] = dose: 60.0 mg/kg/injection, schedule: Q01DX005 (ip), vehicle: saline with Tween-80
[7] = dose: 120.0 mg/kg/injection, schedule: Q01DX005 (ip), vehicle: saline with Tween-80
[8] = dose: 240.0 mg/kg/injection, schedule: Q01DX005 (ip), vehicle: saline with Tween-80
[9] = dose: 50.0 mg/kg/injection, schedule: Q01DX005 (ip), vehicle: Klucel (hydroxypropylcellulose) (HPC)
[10] = dose: 100.0 mg/kg/injection, schedule: Q01DX005 (ip), vehicle: Klucel (hydroxypropylcellulose) (HPC)

SMILES: CCOC(=O)CCC(NC(=O)c1ccc(NCCC(C)=O)cc1)C(=O)OCC (configuration not stated)
- T/C [1]: 104 % of control
- T/C [2]: 105 % of control
- T/C [3]: 104 % of control
- T/C (dose: 400.0 mg/kg/injection, schedule: Q01DX009 (ip), vehicle: saline with Tween-80): 105 % of control

SMILES: NC(=O)Nc1nc(C(F)(F)F)cc(=O)[nH]1
- T/C [1]: 103 % of control
- T/C [2]: 106 % of control
- T/C [3]: 99 % of control

SMILES: OCc1c(CO)c(C(F)(F)F)n2c1CCC2
- T/C [4]: 104 % of control
- T/C [5]: 104 % of control

SMILES: Nc1nc2ncn(COC(CO)CO)c2c(=O)[nH]1
- T/C [6]: 100 % of control
- T/C [7]: 98 % of control
- T/C [8]: 100 % of control

SMILES: O=C1c2ccccc2-c2c1c1ccccc1c(=O)n2CCO
- T/C (dose: 50.0 mg/kg/injection, schedule: Q01DX005 (ip), vehicle: saline with Tween-80): 96 % of control
- T/C (dose: 100.0 mg/kg/injection, schedule: Q01DX005 (ip), vehicle: saline with Tween-80): 94 % of control
- T/C (dose: 200.0 mg/kg/injection, schedule: Q01DX005 (ip), vehicle: saline with Tween-80): 105 % of control

SMILES: C=CCOC(=O)OCCO
- T/C (dose: 60.0 mg/kg/injection, schedule: Q01DX005 (ip), vehicle: saline): 101 % of control
- T/C (dose: 120.0 mg/kg/injection, schedule: Q01DX005 (ip), vehicle: saline): 108 % of control
- T/C (dose: 240.0 mg/kg/injection, schedule: Q01DX005 (ip), vehicle: saline): 99 % of control

SMILES: O=C(NC(Cc1ccc(I)cc1)C(=O)O)c1ccc(I)cc1 (configuration not stated)
- T/C [9]: 96 % of control
- T/C [10]: 104 % of control
- T/C (dose: 200.0 mg/kg/injection, schedule: Q01DX005 (ip), vehicle: Klucel (hydroxypropylcellulose) (HPC)): 104 % of control

SMILES: COc1ccc(/C=c2\sc3nc(-c4ccccc4)nn3c2=O)cc1
- T/C [4]: 98 % of control
- T/C [5]: 98 % of control

SMILES: NC(C(=O)O)C1C=CCC1 (configuration not stated)
- T/C [9]: 106 % of control
- T/C [10]: 99 % of control

SMILES: S=c1o[nH]c(-c2ccccc2)c1C=Nc1ccccc1
- T/C [6]: 102 % of control
- T/C [7]: 93 % of control
- T/C [8]: 94 % of control

SMILES: CCSC(C(O)C(O)C(O)C(O)CO)n1cnc2c(SC)ncnc21 (configuration not stated)
- T/C (dose: 25.0 mg/kg/injection, schedule: Q01DX009 (ip), vehicle: water): 99 % of control
- T/C (dose: 50.0 mg/kg/injection, schedule: Q01DX009 (ip), vehicle: water): 95 % of control
- T/C (dose: 100.0 mg/kg/injection, schedule: Q01DX009 (ip), vehicle: water): 94 % of control
- T/C (dose: 200.0 mg/kg/injection, schedule: Q01DX009 (ip), vehicle: water): 99 % of control
- T/C (dose: 400.0 mg/kg/injection, schedule: Q01DX009 (ip), vehicle: water): 97 % of control

SMILES: CC1=CC(=O)C=C(C)C1=O
- T/C (dose: 1.56 mg/kg/injection, schedule: Q04DX003 (ip), vehicle: saline with Tween-80): 106 % of control
- T/C (dose: 3.12 mg/kg/injection, schedule: Q04DX003 (ip), vehicle: saline with Tween-80): 89 % of control
- T/C (dose: 6.25 mg/kg/injection, schedule: Q04DX003 (ip), vehicle: saline with Tween-80): 103 % of control

SMILES: O=S(=O)(O)CCCS(=O)(=O)O
- T/C (dose: 50.0 mg/kg/injection, schedule: Q01DX009 (ip), vehicle: saline): 98 % of control
- T/C (dose: 100.0 mg/kg/injection, schedule: Q01DX009 (ip), vehicle: saline): 98 % of control
- T/C (dose: 200.0 mg/kg/injection, schedule: Q01DX009 (ip), vehicle: saline): 101 % of control

SMILES: COc1ccc2c(c1)CCc1nc3n(c1-2)C(O)(c1ccccc1)C(CC(=O)O)S3 (configuration not stated)
- T/C [4]: 94 % of control
- T/C [5]: 105 % of control
- T/C (dose: 200.0 mg/kg/injection, schedule: Q01DX009 (ip), vehicle: Klucel (hydroxypropylcellulose) (HPC)): 103 % of control

SMILES: CCCCCCOCN(COCCCCCC)c1ccc(Cl)cc1
- T/C [1]: 102 % of control
- T/C [2]: 109 % of control
- T/C [3]: 118 % of control

SMILES: C1=CCC2CSCC2C1 (configuration not stated)
- T/C (dose: 37.5 mg/kg/injection, schedule: Q01DX001 (ip), vehicle: saline sonified): 100 % of control
- T/C (dose: 75.0 mg/kg/injection, schedule: Q01DX001 (ip), vehicle: saline sonified): 105 % of control
